Laboratory results from patent publication US20250270190A1, “KIT INHIBITORS” (BLUEPRINT MEDICINES CORPORATION, priority 2022, published 2025).

The compounds below were run against T1, c-kit autophosphorylation (Phospho c-Kit Tyr721) in HMC 1.1 (exon 11/13) cells, V654A (Homo sapiens, UniProt P10721, V560G/V654A) (assay: pKIT Meso Scale Discovery (MSD) assay, inhibition of autophosphorylation of KIT, HMC1.1_V654A). Details: Table 1, cell line not named for Table 1, b1056 names pKIT HMC1.1_V654A, read-out: Code (IC50 for inhibition of autophosphorylation of KIT, pKIT MSD assay).
T1 construct: endogenous in cells; host or cells: HMC 1.1 (exon 11/13) cells
T1 sequence (P10721 26-976 V560G/V654A): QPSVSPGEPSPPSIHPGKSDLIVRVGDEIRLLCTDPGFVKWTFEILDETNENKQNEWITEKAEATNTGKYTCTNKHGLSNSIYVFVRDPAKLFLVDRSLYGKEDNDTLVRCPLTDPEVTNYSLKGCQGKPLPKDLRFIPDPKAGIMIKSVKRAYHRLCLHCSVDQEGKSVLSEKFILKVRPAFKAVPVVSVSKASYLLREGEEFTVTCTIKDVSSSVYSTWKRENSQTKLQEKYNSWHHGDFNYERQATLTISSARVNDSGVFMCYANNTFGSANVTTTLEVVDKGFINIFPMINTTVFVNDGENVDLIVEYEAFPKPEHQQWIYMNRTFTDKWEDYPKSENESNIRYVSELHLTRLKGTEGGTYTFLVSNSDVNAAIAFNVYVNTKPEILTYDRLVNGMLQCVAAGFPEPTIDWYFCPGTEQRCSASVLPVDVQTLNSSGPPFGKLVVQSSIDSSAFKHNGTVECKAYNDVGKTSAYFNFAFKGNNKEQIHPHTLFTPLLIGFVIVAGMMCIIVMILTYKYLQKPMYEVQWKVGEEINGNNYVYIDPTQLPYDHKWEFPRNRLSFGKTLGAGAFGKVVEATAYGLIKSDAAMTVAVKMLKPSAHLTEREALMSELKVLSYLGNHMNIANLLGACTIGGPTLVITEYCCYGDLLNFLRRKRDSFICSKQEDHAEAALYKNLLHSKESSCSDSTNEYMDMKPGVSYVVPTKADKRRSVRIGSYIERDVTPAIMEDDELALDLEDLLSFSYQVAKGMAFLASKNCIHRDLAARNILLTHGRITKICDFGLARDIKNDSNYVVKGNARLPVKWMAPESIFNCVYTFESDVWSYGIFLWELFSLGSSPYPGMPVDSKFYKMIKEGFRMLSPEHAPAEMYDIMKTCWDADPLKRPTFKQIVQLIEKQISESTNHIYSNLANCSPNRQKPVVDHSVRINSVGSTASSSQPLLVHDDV
Type: cell-based
Excerpt: In this MSD assay, specific capture antibodies for the analytes were coated in arrays in each well of a 96-well carbon electrode plate surface. The detection system used SULFO-TAG™ labels that emit light upon electrochemical stimulation initiated at the electrode surfaces of the […] and MULTI-SPOT® plates. The electrical stimulation was decoupled from the output signal, which was light and generated assays with minimal background. The goal of this assay was to assess the percent inhibition of autophosphorylation of c-kit in cells when treated with compounds of the disclosure in a dose-dependent manner.
HMC1.1 cells were maintained in IMDM media supplemented with 20% Calf Serum with Iron and 100 units/mL Penicillin-Streptomycin and grown in a 37° C. humidified tissue culture incubator. HMC1.1 cells were passaged by 1:5 dilution into fresh IMDM media supplemented with 20% Calf Serum with Iron and 100 units/mL Penicillin-Streptomycin every 5-7 days and were discarded after 20 passages.
Seeding was performed as follows: HMC cells were brought to 1×10^6 cells/mL in fresh phenol red free, serum-free, iron-free IDM media with Pen/Strep; cells were seeded/plated into respective U-bottom plate by dispensing 50 μL/well (50,000 cells) using the Multidrop, and covered and incubated cells at 37° C. in a humidified tissue culture incubator for 4 hours (starvation).
Dosing was performed as follows: The compound mother plate was prepared by adding 16 μL of compound to 24 μL of DMSO to row A, odd-numbered columns of screen matrix plate. […] Intermediate plates were prepared in V-bottom plates by dispensing 98 μL of phenol red free, serum free IMDM media with Pen/Strep into all wells. 2 μL DMSO or 2 μL 10 mM staurosporine was added to appropriate control wells. At the end of four hours, the Bravo protocol 10 cpds vertical dose MSD 2 U-plates 96-well was used to: add 2 μL from the compound plate to the intermediate plate and dose cells with 7 μL from the intermediate plate. The cells were covered and incubated at 37° C. in a humidified tissue culture incubator for 90 min. The complete lysis buffer was prepared with AlphaLISA 5× Lysis Buffer supplemented with 1× protease inhibitor cocktail and kept on ice. The cells were pelleted by centrifuging plate at 2500×g for 5 min, 4° C. and media removed. Complete lysis buffer was added (14 μL/well). The cells were covered and shaken at 4° C. on a plate shaker at 600 rpm for 30 min and kept cold
The MSD protocol was preformed as follows: Tris Wash Buffer (2L) was prepared by diluting 10× stock of Tris Wash Buffer to 1× in water. Blocking Solution was prepared by dissolving 600 mg Blocker A in 20 mL 1× Trish Wash Buffer (per plate). The Antibody Dilution Buffer was prepared by mixing 1 mL Blocking solution and 2 mL 1× Trish Wash Buffer (per plate) and kept on ice. Blocking Solution was added (150 μL/well) to each MSD plate using a multichannel repeater pipette. The plate was covered and incubated at room temperature on a plate shaker at 700 rpm for hr. The Bio Tek protocol RL-96w-wash-MSD_stacker_fromC was used to wash plates 3× with 150 μL/well. Cells were pelleted by centrifuging lysate plates at 2500×g for 5 mins. The Bravo protocol was used (transfer 25 ul supernatants from V-96 to assay plate) to transfer 25 μL sample lysate per well to each MSD plate. The plates were covered and incubated at room temperature on a plate shaker at 700 rpm for hr. The Bio Tek protocol RL-96w-wash-MSD_stacker_fromC was used to wash plates 3× with 150 μL/well. The Detection Antibody Solution was prepared by diluting the 60 μL of the 50× antibody stock in 2.94 mL of the Antibody Dilution Buffer (per plate) and kept on ice. 25 μL/well of detection antibody solution was added to each MSD plate. The plates were covered and incubated at room temperature on a plate shaker at 700 rpm for 1 hr. The Read Buffer was prepared by diluting 5 mL of 4× stock of Read Buffer to 1× in 15 mL water (per plate).
With CNC(=O)c1cnc(Nc2cc(N)nc(CF)n2)cc1N[C@H](C)C(F)F [Compound 47, (R)-6-((6-amino-2-(fluoromethyl)pyrimidin-4-yl)amino)-4-((1,1-difluoropropan-2-yl)amino)-N-methylnicotinamide] the IC50 was < 0.01 µM.
With CNC(C)Cn1cc(-c2cnc(Nc3cc(N)nc(C(F)F)n3)cc2OC(F)F)cn1 (stereo not drawn) [Compound 180, N4-(4-(difluoromethoxy)-5-(1-(2-(methylamino)propyl)-1H-pyrazol-4-yl)pyridin-2-yl)-2-(difluoromethyl)pyrimidine-4,6-diamine] the IC50 was < 0.01 µM.
Nc1cc(Nc2cc(NC3CC3)c(C(=O)N[C@H]3C[C@@H](O)C3)cn2)nc(C(F)F)n1 [Compound 123, 6-((6-amino-2-(difluoromethyl)pyrimidin-4-yl)amino)-4-(cyclopropylamino)-N-((1s,3s)-3-hydroxycyclobutyl)nicotinamide] showed an IC50 of 0.01 to 0.04 µM.
In the case of CNC(=O)c1cnc(Nc2cc(N)nc(CF)n2)cc1NC(C)C [Compound 9, 6-((6-amino-2-(fluoromethyl)pyrimidin-4-yl)amino)-4-(isopropylamino)-N-methylnicotinamide], the IC50 is reported as < 0.01 µM.
For CCOc1cc(Nc2cc(N)nc(C(F)F)n2)ncc1-c1cnn(C)c1 [Compound 34, 2-(difluoromethyl)-N4-(4-ethoxy-5-(1-methyl-1H-pyrazol-4-yl)pyridin-2-yl)pyrimidine-4,6-diamine], the IC50 was < 0.01 µM.
CNC(=O)c1cnc(Nc2cc(N)nc(C(F)F)n2)cc1NC1(C)CCOC1 (stereo not drawn) [Compound 89, 6-((6-amino-2-(difluoromethyl)pyrimidin-4-yl)amino)-N-methyl-4-((3-methyltetrahydrofuran-3-yl)amino)nicotinamide] was tested, and the IC50 was < 0.01 µM.
In the case of CCNc1cc(Nc2cc(N)nc(C(F)F)n2)ncc1C(=O)NC1CC2(CNC2)C1 [Compound 149, 6-((6-amino-2-(difluoromethyl)pyrimidin-4-yl)amino)-4-(ethylamino)-N-(2-azaspiro[3.3]heptan-6-yl)nicotinamide], the IC50 is reported as > 0.04 µM.
In the case of CNC(=O)c1cnc(Nc2cc(N)nc(C(F)F)n2)cc1NC [Compound 4, 6-((6-amino-2-(difluoromethyl)pyrimidin-4-yl)amino)-N-methyl-4-(methylamino)nicotinamide], the IC50 is reported as < 0.01 µM.
CNc1cc(Nc2cc(N)nc(CF)n2)ncc1C(=O)NC1CC1 [Compound 7, 6-((6-amino-2-(fluoromethyl)pyrimidin-4-yl)amino)-N-cyclopropyl-4-(methylamino)nicotinamide] gave an IC50 of 0.01 to 0.04 µM.
COc1cc(Nc2cc(N)nc(C(F)F)n2)ncc1-c1cnn(C2CC(O)C2)c1 (stereo not drawn) [Compound 112, 3-(4-(6-((6-amino-2-(difluoromethyl)pyrimidin-4-yl)amino)-4-methoxypyridin-3-yl)-1H-pyrazol-1-yl)cyclobutan-1-ol] gave an IC50 of 0.01 to 0.04 µM.
For COc1cc(Nc2cc(N)nc(C(F)F)n2)ncc1-c1cnn(C(F)(F)F)c1 [Compound 94, 2-(difluoromethyl)-N4-(4-methoxy-5-(1-(trifluoromethyl)-1H-pyrazol-4-yl)pyridin-2-yl)pyrimidine-4,6-diamine], the IC50 was 0.01 to 0.04 µM.
CNC(=O)c1cnc(Nc2cc(N)nc([C@H](C)F)n2)cc1NC1CC1 [Compound 15, (S)-6-((6-amino-2-(1-fluoroethyl)pyrimidin-4-yl)amino)-4-(cyclopropylamino)-N-methylnicotinamide] showed an IC50 of 0.01 to 0.04 µM.
In the case of CCNc1cc(Nc2cc(N)nc(C(F)F)n2)ncc1C(=O)NC12CC(CO)(C1)C2 [Compound 151, 6-((6-amino-2-(difluoromethyl)pyrimidin-4-yl)amino)-4-(ethylamino)-N-(3-(hydroxymethyl)bicyclo[1.1.1]pentan-1-yl)nicotinamide], the IC50 is reported as < 0.01 µM.
In the case of Cn1cc(-c2cnc(Nc3cc(N)nc(C(F)F)n3)cc2OCC2CCCCO2)cn1 (stereo not drawn) [Compound 172, 2-(difluoromethyl)-N4-(5-(1-methyl-1H-pyrazol-4-yl)-4-((tetrahydro-2H-pyran-2-yl)methoxy)pyridin-2-yl)pyrimidine-4,6-diamine], the IC50 is reported as 0.01 to 0.04 µM.
C[C@@H](CF)Nc1cc(Nc2cc(N)nc(C(F)F)n2)ncc1C(=O)NCc1ccccn1 [Compound 186, (S)-6-((6-amino-2-(difluoromethyl)pyrimidin-4-yl)amino)-4-((1-fluoropropan-2-yl)amino)-N-(pyridin-2-ylmethyl)nicotinamide] was tested, and the IC50 was < 0.01 µM.
For Nc1cc(Nc2cc(OC3CC3)c(-c3cnn(CCN4CCC4)c3)cn2)nc(C(F)F)n1 [Compound 182, N4-(5-(1-(2-(azetidin-1-yl)ethyl)-1H-pyrazol-4-yl)-4-cyclopropoxypyridin-2-yl)-2-(difluoromethyl)pyrimidine-4,6-diamine], the IC50 was < 0.01 µM.
For COc1cc(Nc2cc(N)nc(C(F)F)n2)ncc1-c1cnn(C2COC2)c1 [Compound 78, 2-(difluoromethyl)-N4-(4-methoxy-5-(1-(oxetan-3-yl)-1H-pyrazol-4-yl)pyridin-2-yl)pyrimidine-4,6-diamine], the IC50 was < 0.01 µM.
Work on CNC(=O)c1cnc(Nc2cc(N)nc(C(F)F)n2)cc1NCCC(C)C [Compound 66, 6-((6-amino-2-(difluoromethyl)pyrimidin-4-yl)amino)-4-(isopentylamino)-N-methylnicotinamide] yielded an IC50 of 0.01 to 0.04 µM.
For CC(C)Oc1cc(Nc2cc(N)nc(CF)n2)ncc1-c1cnn(C)c1 [Compound 33, 2-(fluoromethyl)-N4-(4-isopropoxy-5-(1-methyl-1H-pyrazol-4-yl)pyridin-2-yl)pyrimidine-4,6-diamine], the IC50 was < 0.01 µM.
With CCNc1cc(Nc2cc(N)nc(C(F)F)n2)ncc1C(=O)NCc1ccccn1 [Compound 131, 6-((6-amino-2-(difluoromethyl)pyrimidin-4-yl)amino)-4-(ethylamino)-N-(pyridin-2-ylmethyl)nicotinamide] the IC50 was < 0.01 µM.
In the case of CN(CCn1cc(-c2cnc(Nc3cc(N)nc(C(F)F)n3)cc2OC2CC2)cn1)CC(F)(F)F [Compound 203, N4-(4-cyclopropoxy-5-(1-(2-(methyl(2,2,2-trifluoroethyl)amino)ethyl)-1H-pyrazol-4-yl)pyridin-2-yl)-2-(difluoromethyl)pyrimidine-4,6-diamine], the IC50 is reported as < 0.01 µM.
For CC(C)Oc1cc(Nc2cc(N)nc([C@H](C)F)n2)ncc1-c1cnn([C@@H]2CCOC2)c1 (single isomer, unassigned) [Compound 156, 2-((S)-1-fluoroethyl)-N4-(4-isopropoxy-5-(1-((R)-tetrahydrofuran-3-yl)-1H-pyrazol-4-yl)pyridin-2-yl)pyrimidine-4,6-diamine or 2-((S)-1-fluoroethyl)-N4-(4-isopropoxy-5-(1-((S)-tetrahydrofuran-3-yl)-1H-pyrazol-4-yl)pyridin-2-yl)pyrimidine-4,6-diamine], the IC50 was < 0.01 µM.
For CN[C@H](C)Cn1cc(-c2cnc(Nc3cc(N)nc(C(F)F)n3)cc2OC(F)(F)F)cn1 (single isomer, unassigned) [Compound 196, (R)-2-(difluoromethyl)-N4-(5-(1-(2-(methylamino)propyl)-1H-pyrazol-4-yl)-4-(trifluoromethoxy)pyridin-2-yl)pyrimidine-4,6-diamine or (S)-2-(difluoromethyl)-N4-(5-(1-(2-(methylamino)propyl)-1H-pyrazol-4-yl)-4-(trifluoromethoxy)pyridin-2-yl)pyrimidine-4,6-diamine], the IC50 was < 0.01 µM.
In the case of CC(C)Nc1cc(Nc2cc(N)nc(C(F)F)n2)ncc1C(=O)NCc1cocn1 [Compound 147, 6-((6-amino-2-(difluoromethyl)pyrimidin-4-yl)amino)-4-(isopropylamino)-N-(oxazol-4-ylmethyl)nicotinamide], the IC50 is reported as < 0.01 µM.
